SMILES strings stand for the structures.

p38α, sequence (Q16539 whole entry): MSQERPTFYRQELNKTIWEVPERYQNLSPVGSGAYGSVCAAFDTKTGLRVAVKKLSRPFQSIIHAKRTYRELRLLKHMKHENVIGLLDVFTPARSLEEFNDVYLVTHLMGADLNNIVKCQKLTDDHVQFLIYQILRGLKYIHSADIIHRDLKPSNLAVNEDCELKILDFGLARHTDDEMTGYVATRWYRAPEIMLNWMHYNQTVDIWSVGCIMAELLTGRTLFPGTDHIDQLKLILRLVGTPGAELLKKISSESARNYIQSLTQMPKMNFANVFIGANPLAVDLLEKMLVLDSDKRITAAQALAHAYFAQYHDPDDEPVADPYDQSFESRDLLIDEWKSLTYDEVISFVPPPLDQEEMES

One assay has as its target p38α (Homo sapiens, UniProt Q16539). Nature of the assay: p38α/MK2 cascade assay. It is filed as biochemical. To be noted: Table 1; inhibitors preincubated with p38α for 40 minutes; phosphorylation of Hsp27 peptide by MK-2, Caliper LabChip 3000; read-out: p38a/MK2 Cascade 40 min Pre-Incuabtion (% Inhibition): IC50. The gist of the method: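 In a cascade format, p38α was preincubated 40 min with inhibitor (1000–0.05 nM) before adding 1 nM nonactive MK2 (54-400), 5 μM MgATP and 0.5 μM FITC-Hsp27 peptide. Reaction ran 60 min in HEPES pH 7.5 with MgCl2, DTT, 2% DMSO, then EDTA-quenched. Peptide phosphorylation was measured by Caliper mobility shift to give IC50.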
With `COc1cccc(Cn2c(C)cc(OCc3ccccc3CNC(=O)Nc3cc(C(C)(C)C)nn3-c3ccc(Cl)c(O)c3)c(C)c2=O)c1` [Example 47, 1-[3-tert-butyl-1-(4-chloro-3-hydroxyphenyl)-1H-pyrazol-5-yl]-3-[2-({[1-(3-methoxybenzyl)-3,6-dimethyl-2-oxo-1,2-dihydropyridin-4-yl]oxy}methyl)benzyl]urea], the IC50 stood at 12.2 nM. With `COc1cccc(-n2nc(C(C)(C)C)cc2NC(=O)NCc2ccccc2COc2cc(C)n(Cc3ccc(OC)cc3OC)c(=O)c2Br)c1` [Example 119, 1-[2-({[3-bromo-1-(2,4-dimethoxybenzyl)-6-methyl-2-oxo-1,2-dihydropyridin-4-yl]oxy}methyl)benzyl]-3-[3-tert-butyl-1-(3-methoxyphenyl)-1H-pyrazol-5-yl]urea], the IC50 came out at 11.9 nM. Take `CCc1c(OCc2ccccc2CNC(=O)Nc2cc(C(C)(C)C)nn2-c2cccc(F)c2)ncn(Cc2ccc(OC)cc2)c1=O` [Example 116, 1-[3-tert-butyl-1-(3-fluorophenyl)-1H-pyrazol-5-yl]-3-[2-({[5-ethyl-1-(4-methoxybenzyl)-6-oxo-1,6-dihydropyrimidin-4-yl]oxy}methyl)benzyl]urea]: the IC50 was 10.1 nM.

In the case of `COC(=O)c1ccc(C)c(-n2c(C)cc(OCc3ccc(F)cc3CNC(=O)Nc3cc(C(C)(C)C)nn3-c3cccc(OC)c3)c(Cl)c2=O)c1` [Example 183, Methyl 3-{4-[(2-{[({[3-tert-butyl-1-(3-methoxyphenyl)-1H-pyrazol-5-yl]amino}carbonyl)amino]methyl}-4-fluorobenzyl)oxy]-3-chloro-6-methyl-2-oxopyridin-1(2H)-yl}-4-methylbenzoate], the IC50 came out at 2.26 nM. For `CCc1c(OCc2ccccc2CNC(=O)Nc2cc(C(C)(C)C)nn2-c2ccc(C)cc2)ncn(Cc2ccccc2)c1=O` [Example 110, 1-(2-{[(1-benzyl-5-ethyl-6-oxo-1,6-dihydropyrimidin-4-yl)oxy]methyl}benzyl)-3-[3-tert-butyl-1-(4-methylphenyl)-1H-pyrazol-5-yl]urea], the IC50 turned out to be 14.4 nM. With `COc1ccc(Cn2c(C)cc(OCc3ccccc3CNC(=O)Nc3cc(C(C)(C)C)nn3-c3cccc(O)c3)c(Cl)c2=O)cc1Cl` [Example 65, 1-[3-tert-butyl-1-(3-hydroxyphenyl)-1H-pyrazol-5-yl]-3-[2-({[3-chloro-1-(3-chloro-4-methoxybenzyl)-6-methyl-2-oxo-1,2-dihydropyridin-4-yl]oxy}methyl)benzyl]urea], the IC50 came out at 6.9 nM.

Consider `COc1cccc(Cn2c(C)cc(OCc3ccccc3CNC(=O)Nc3cc(C(C)(C)C)nn3-c3cccc(OCCOC4CCCCO4)c3)cc2=O)c1` (stereo not shown) [Example 36, 1-(3-tert-butyl-1-{3-[2-(tetrahydro-2H-pyran-2-yloxy)ethoxy]phenyl}-1H-pyrazol-5-yl)-3-[2-({[1-(3-methoxybenzyl)-6-methyl-2-oxo-1,2-dihydropyridin-4-yl]oxy}methyl)benzyl]urea], for which the IC50 is 142 nM.

As to `COc1ccc(Cn2c(C)cc(OCc3ccc(F)cc3CNC(=O)Nc3cc(C(C)(C)C)nn3-c3cccc(OCCO)c3)c(Cl)c2=O)cc1` [Example 60, 1-{3-tert-butyl-1-[3-(2-hydroxyethoxy)phenyl]-1H-pyrazol-5-yl}-3-[2-({[3-chloro-1-(4-methoxybenzyl)-6-methyl-2-oxo-1,2-dihydropyridin-4-yl]oxy}methyl)-5-fluorobenzyl]urea], the IC50 worked out at 3.7 nM. On the same count and under the same terms, under `COc1cccc(Cn2c(C)cc(OCc3ccc(F)cc3CNC(=O)Nc3cc(C(C)(C)C)nn3-c3cccc(OCCO)c3)c(Cl)c2=O)c1` [Example 39, 1-{3-tert-butyl-1-[3-(2-hydroxyethoxy)phenyl]-1-pyrazol-5-yl}-3-[2-({[3-chloro-1-(3-methoxybenzyl)-6-methyl-2-oxo-1,2-dihydropyridin-4-yl]oxy}methyl)-5-fluorobenzyl]urea] stands 7.3 nM.

`COc1ccc(Cn2c(C)cc(OCc3ccccc3CNC(=O)Nc3cc(C(C)(C)C)nn3-c3ccc(O)c(Cl)c3)c(Cl)c2=O)cc1Cl` [Example 66, 1-[3-tert-butyl-1-(3-chloro-4-hydroxyphenyl)-1H-pyrazol-5-yl]-3-[2-({[3-chloro-1-(3-chloro-4-methoxybenzyl)-6-methyl-2-oxo-1,2-dihydropyridin-4-yl]oxy}methyl)benzyl]urea]: the IC50 came out at 9.7 nM.

Staying with this assay, now noted: Table 2; same p38α/MK2 cascade assay; 40 minutes preincubation; read-out: p38a/MK2 Cascade 40 min Pre-Incuabtion (% Inhibition): IC50.
On to `COc1cc(Cn2c(C)cc(OCc3ccccc3CNC(=O)Nc3cc(C(C)(C)C)nn3-c3ccc(O)c(Cl)c3)c(Cl)c2=O)ccc1Cl` [Example 254, 1-[3-tert-butyl-1-(3-chloro-4-hydroxyphenyl)-1H-pyrazol-5-yl]-3-[2-({[3-chloro-1-(4-chloro-3-methoxybenzyl)-6-methyl-2-oxo-1,2-dihydropyridin-4-yl]oxy}methyl)benzyl]urea], for which the IC50 is 26.6 nM. Consider `Cc1ccc(C(=O)NCCO)cc1-n1c(C)cc(OCc2ccc(F)cc2CNC(=O)Nc2cc(C(C)(C)C)nn2-c2cccc(OCCO)c2)c(Cl)c1=O` [Example 239, 3-[4-{[2-({[({3-tert-butyl-1-[3-(2-hydroxyethoxy)phenyl]-1H-pyrazol-5-yl}amino)carbonyl]amino}methyl)-4-fluorobenzyl]-oxy}-3-chloro-6-methyl-2-oxopyridin-1(2H)-yl]-N-(2-hydroxy-ethyl)-4-methylbenzamide], for which the IC50 came to 2.9 nM. Consider `COc1ccccc1Cn1c(C)cc(OCc2ccccc2CNC(=O)Nc2cc(C(C)(C)C)nn2-c2ccc(Cl)c(O)c2)c(Cl)c1=O` [Example 262, 1-[3-tert-butyl-1-(4-chloro-3-hydroxyphenyl)-1H-pyrazol-5-yl]-3-[2-({[3-chloro-1-(2-methoxybenzyl)-6-methyl-2-oxo-1,2-dihydro-pyridin-4-yl]oxy}methyl)benzyl]urea], for which the IC50 came to 84.3 nM. On to `COCCNC(=O)c1ccc(C)c(-n2c(C)cc(OCc3ccccc3CNC(=O)Nc3cc(C(C)(C)C)nn3-c3ccc(O)cc3)c(Cl)c2=O)c1` [Example 218, 3-{4-[(2-{[({[3-tert-butyl-1-(4-hydroxyphenyl)-1H-pyrazol-5-yl]amino}carbonyl)amino]methyl}benzyl)oxy]-3-chloro-6-methyl-2-oxopyridin-1(2H)-yl}-N-(2-methoxyethyl)-4-methyl-benzamide], for which the IC50 came to 1.81 nM.

With `CNC(=O)c1ccc(C)c(-n2c(C)cc(OCc3ccc(F)cc3CNC(=O)Nc3cc(C(C)(C)C)nn3-c3cccc(OC)c3)c(Cl)c2=O)c1` [Example 208, 3-{4-[(2-{[({[3-tert-butyl-1-(3-methoxyphenyl)-1H-pyrazol-5-yl]amino}carbonyl)amino]methyl}-4-fluorobenzyl)oxy]-3-chloro-6-methyl-2-oxopyridin-1(2H)-yl}-N,4-dimethyl-benzamide], the IC50 stood at 1.79 nM. For `COc1ccc(Cn2c(C)cc(OCc3ccccc3CNC(=O)Nc3cc(C(C)(C)C)nn3-c3cccc(O)c3)c(C)c2=O)cc1Cl` [Example 259, 1-[3-tert-butyl-1-(3-hydroxyphenyl)-1H-pyrazol-5-yl]-3-[2-({[1-(3-chloro-4-methoxybenzyl)-3,6-dimethyl-2-oxo-1,2-dihydro-pyridin-4-yl]oxy}methyl)benzyl]urea], the IC50 was determined as 9.2 nM. `Cc1ccc(C(=O)NCCO)cc1-n1c(C)cc(OCc2ccccc2CNC(=O)Nc2cc(C(C)(C)C)nn2-c2cccc(OCCO)c2)c(Cl)c1=O` [Example 210, 3-[4-{[2-({[({3-tert-butyl-1-[3-(2-hydroxyethoxy)phenyl]-1H-pyrazol-5-yl}amino)carbonyl]amino}methyl)-benzyl]oxy}-3-chloro-6-methyl-2-oxopyridin-1(2H)-yl]-N-(2-hydroxyethyl)-4-methylbenzamide]: the IC50 amounted to 2.9 nM. Still for that read-out and setting: under `Cc1ccc(C(=O)NCCO)cc1-n1c(C)cc(OCc2ccccc2CNC(=O)Nc2cc(C(C)(C)C)nn2-c2ccc(Cl)c(O)c2)c(Cl)c1=O` [Example 228, 3-{4-[(2-{[({[3-tert-butyl-1-(4-chloro-3-hydroxyphenyl)-1H-pyrazol-5-yl]amino}carbonyl)amino]methyl}benzyl)oxy]-3-chloro-6-methyl-2-oxopyridin-1(2H)-yl}-N-(2-hydroxyethyl)-4-methylbenzamide] stands 2.1 nM; under `COc1ccc(Cn2c(C)cc(OCc3ccccc3CNC(=O)Nc3cc(C(C)(C)C)nn3-c3cccc(Cl)c3)c(Br)c2=O)c(OC)c1` [Example 242, 1-[2-({[3-bromo-1-(2,4-dimethoxybenzyl)-6-methyl-2-oxo-1,2-dihydropyridin-4-yl]oxy}methyl)benzyl]-3-[3-tert-butyl-1-(3-chlorophenyl)-1H-pyrazol-5-yl]urea], 10.8 nM; under `COC(=O)c1ccc(C)c(-n2c(SC)nc(OCc3ccccc3CNC(=O)Nc3cc(C(C)(C)C)nn3-c3ccc(C)cc3)cc2=O)c1` [Example 204, methyl 3-{4-[(2-{[({[3-tert-butyl-1-(4-methylphenyl)-1H-pyrazol-5-yl]amino}carbonyl)-amino]-methyl}-benzyl)oxy]-2-(methylthio)-6-oxopyrimidin-1(6H)-yl}-4-methylbenzoate], 26.3 nM. As to `COc1ccccc1Cn1c(C)cc(OCc2ccccc2CNC(=O)Nc2cc(C(C)(C)C)nn2-c2ccc(Cl)c(O)c2)c(C)c1=O` [Example 275, 1-[3-tert-butyl-1-(4-chloro-3-hydroxyphenyl)-1H-pyrazol-5-yl]-3-[2-({[1-(2-methoxybenzyl)-3,6-dimethyl-2-oxo-1,2-dihydropyridin-4-yl]oxy}methyl)benzyl]urea], the IC50 turned out to be 53.7 nM.

For the molecule `CNC(=O)c1ccc(C)c(-n2c(C)cc(OCc3ccccc3CNC(=O)Nc3cc(C(C)(C)C)nn3-c3ccc(O)cc3)c(Cl)c2=O)c1` [Example 214, 3-{4-[(2-{[({[3-tert-butyl-1-(4-hydroxyphenyl)-1H-pyrazol-5-yl]amino}carbonyl)amino]methyl}benzyl)oxy]-3-chloro-6-methyl-2-oxopyridin-1(2H)-yl}-N,4-dimethylbenzamide], the IC50 stood at 2.1 nM.

These data come from patent US20090270350A1, “Pyridinone Pyrazole Urea and Pyrimidinone Pyrazole Urea Derivatives” (PFIZER INC., priority 2006, published 2009).
